ChEMBL document CHEMBL1201862, “PubChem BioAssay data set” (2004)
The source made the active and inactive calls.

Assays:
Fatty acid synthase [1] = molecular target: T1, Fatty acid synthase (Homo sapiens, UniProt P49327); assay: FAS thioesterase domain inhibitors, dose response, biochemical, kinetic fluorescence intensity (AID 624326); assay type: functional;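 also: rate of fluorescence rise from hydrolysis of a fluorogenic O-methyl fluorescein ester substrate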
Fatty acid synthase [2] = molecular target: T1, Fatty acid synthase; assay: FAS thioesterase domain inhibitors, dose response, biochemical, endpoint fluorescence intensity, uHTS hits (AID 624327); assay type: functional;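 also: fluorescence from hydrolysis of an O-methyl fluorescein acyl ester substrate by the enzyme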
[3] = NIH-3T3 fibroblast cytotoxicity, dose response, cytotoxicity control, cell-based, fluorescence, Alamar Blue, secondary assay (AID 2327); assay type: functional;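 also: NIH-3T3 mouse fibroblasts cultured with fluconazole at 8 µg/mL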
[4] = C. albicans growth with fluconazole, confirmation, fluorescence, retest (AID 2467); assay type: functional, cell-based
Cytochrome P450 3A4 = Cytochrome P450 3A4 (Homo sapiens, UniProt P08684); details: Potency;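 also: confirmatory qHTS run detecting inhibitors and substrates of CYP3A4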
Cytochrome P450 3A4, sequence (P08684 whole entry): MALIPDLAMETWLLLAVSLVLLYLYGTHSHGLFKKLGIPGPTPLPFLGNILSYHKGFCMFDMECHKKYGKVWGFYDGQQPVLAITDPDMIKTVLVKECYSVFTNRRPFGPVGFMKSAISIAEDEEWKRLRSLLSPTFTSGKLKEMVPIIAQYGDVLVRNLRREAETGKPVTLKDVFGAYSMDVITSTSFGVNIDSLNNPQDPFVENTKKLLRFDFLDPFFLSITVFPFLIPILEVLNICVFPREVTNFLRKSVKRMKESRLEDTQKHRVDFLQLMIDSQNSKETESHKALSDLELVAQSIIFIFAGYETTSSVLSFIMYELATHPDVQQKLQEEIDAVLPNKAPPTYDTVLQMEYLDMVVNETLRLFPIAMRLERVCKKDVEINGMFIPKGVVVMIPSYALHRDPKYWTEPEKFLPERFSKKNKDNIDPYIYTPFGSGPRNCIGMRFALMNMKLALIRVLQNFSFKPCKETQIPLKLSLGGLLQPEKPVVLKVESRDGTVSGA

Protein RecA = molecular target: T2, Protein RecA (Mycobacterium tuberculosis, UniProt P9WHJ3); assay: Fluorescence Cell-Free Homogeneous Dose Retest to Identify Inhibitors of RecA-Intein Splicing Activity. [Related pubchem assays (depositor defined):AID2097, AID2223, AID489010, AID492950]; assay type: functional
T2 sequence (P9WHJ3 whole entry): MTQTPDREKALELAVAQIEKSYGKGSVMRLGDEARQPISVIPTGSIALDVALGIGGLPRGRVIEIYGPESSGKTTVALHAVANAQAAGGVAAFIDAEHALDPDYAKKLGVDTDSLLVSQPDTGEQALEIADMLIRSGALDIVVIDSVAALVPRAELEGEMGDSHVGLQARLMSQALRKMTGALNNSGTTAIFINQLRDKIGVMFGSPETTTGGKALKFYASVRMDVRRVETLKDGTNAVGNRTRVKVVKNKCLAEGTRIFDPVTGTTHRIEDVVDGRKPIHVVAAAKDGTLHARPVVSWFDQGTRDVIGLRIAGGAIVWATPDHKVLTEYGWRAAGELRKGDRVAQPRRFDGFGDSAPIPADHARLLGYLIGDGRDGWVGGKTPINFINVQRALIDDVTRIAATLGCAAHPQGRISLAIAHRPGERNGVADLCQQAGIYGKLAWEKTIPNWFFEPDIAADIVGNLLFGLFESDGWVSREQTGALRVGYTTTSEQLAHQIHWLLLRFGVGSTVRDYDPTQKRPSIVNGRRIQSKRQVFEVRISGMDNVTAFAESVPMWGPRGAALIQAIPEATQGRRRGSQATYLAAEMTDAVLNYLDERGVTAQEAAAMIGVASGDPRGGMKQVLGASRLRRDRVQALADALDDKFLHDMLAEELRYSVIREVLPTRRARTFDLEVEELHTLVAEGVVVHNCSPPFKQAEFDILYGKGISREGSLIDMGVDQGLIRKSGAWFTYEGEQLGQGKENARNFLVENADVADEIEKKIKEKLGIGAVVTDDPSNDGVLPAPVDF

[5] = molecular target: T3, Replicative DNA helicase DnaB (Mycobacterium tuberculosis, UniProt P9WMR3); assay: DnaB intein splicing inhibitors, dose response, biochemical, cell-free fluorescence (AID 449749); assay type: functional
T3 sequence (P9WMR3 whole entry): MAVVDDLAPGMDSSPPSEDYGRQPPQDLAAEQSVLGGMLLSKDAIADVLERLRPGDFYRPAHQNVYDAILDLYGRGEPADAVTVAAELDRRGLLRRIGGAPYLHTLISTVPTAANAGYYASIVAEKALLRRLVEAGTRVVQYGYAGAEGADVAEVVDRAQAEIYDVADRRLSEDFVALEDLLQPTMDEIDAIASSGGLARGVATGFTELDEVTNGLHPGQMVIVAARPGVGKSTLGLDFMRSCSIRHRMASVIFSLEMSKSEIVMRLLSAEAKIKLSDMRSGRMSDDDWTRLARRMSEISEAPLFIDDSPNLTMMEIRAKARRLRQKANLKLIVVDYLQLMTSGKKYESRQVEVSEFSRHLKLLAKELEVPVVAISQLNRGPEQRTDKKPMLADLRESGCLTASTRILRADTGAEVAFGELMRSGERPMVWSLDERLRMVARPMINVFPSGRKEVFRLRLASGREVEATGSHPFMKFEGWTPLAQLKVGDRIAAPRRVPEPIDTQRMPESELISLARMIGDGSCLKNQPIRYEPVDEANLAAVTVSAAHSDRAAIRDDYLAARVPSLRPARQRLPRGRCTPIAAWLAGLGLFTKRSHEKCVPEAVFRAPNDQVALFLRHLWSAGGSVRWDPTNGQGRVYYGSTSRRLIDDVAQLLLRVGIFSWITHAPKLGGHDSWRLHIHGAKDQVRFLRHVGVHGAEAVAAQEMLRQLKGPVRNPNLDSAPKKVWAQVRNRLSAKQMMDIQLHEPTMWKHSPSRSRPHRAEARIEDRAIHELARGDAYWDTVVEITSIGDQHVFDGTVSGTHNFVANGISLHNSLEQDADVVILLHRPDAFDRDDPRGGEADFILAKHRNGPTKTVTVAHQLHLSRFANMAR

H9c2 = assay: cells; assay type: functional, cell-based; details: Rattus norvegicus, H9c2, Myocardium;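 also: confirmatory concentration-response retest of ultra-high-throughput screening hits for modulation of myocardial damage; cell death induced by hydrogen peroxide oxidative stress; compound pretreatment for 60 min then peroxide exposure for 2 h; potency is for protecting the cells against peroxide damage rather than for killing them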
[6] = Luminescence Cell-Based Dose Retest to Confirm Inhibitors of Cancer Stem Cells. [Related pubchem assays (depositor defined):AID2717, AID2721]; assay type: functional; details: Homo sapiens
[7] = HEp-2 cell cytotoxicity, dose response, cytotoxicity control for RSV inhibitor project, HTS (AID 2410); assay type: functional; details: human respiratory syncytial virus
[8] = molecular target: T4, Rac GTPase-activating protein 1 (Homo sapiens, UniProt Q9H0H5); assay: MgcRacGAP GTPase-activating activity inhibitors, confirmation, biochemical, ADP Hunter fluorescence, primary and confirmatory (AID 624330); assay type: functional
T4 sequence (Q9H0H5 whole entry): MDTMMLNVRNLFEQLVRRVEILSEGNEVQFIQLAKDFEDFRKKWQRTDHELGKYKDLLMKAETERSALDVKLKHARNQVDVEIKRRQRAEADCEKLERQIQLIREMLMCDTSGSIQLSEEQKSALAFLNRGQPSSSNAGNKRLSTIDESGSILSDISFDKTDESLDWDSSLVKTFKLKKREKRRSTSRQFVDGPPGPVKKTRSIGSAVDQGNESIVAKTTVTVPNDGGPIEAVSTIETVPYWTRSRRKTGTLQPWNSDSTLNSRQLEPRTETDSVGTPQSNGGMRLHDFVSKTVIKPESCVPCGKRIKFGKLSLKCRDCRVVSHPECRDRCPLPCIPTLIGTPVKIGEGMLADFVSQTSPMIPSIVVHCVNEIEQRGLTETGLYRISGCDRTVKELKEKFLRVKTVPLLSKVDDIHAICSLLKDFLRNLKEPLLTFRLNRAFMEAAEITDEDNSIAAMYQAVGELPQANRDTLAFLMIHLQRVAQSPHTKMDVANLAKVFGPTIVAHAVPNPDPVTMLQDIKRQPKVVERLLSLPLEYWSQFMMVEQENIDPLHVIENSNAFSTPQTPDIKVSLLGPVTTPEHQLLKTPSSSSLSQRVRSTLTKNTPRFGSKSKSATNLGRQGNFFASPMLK

T1 sequence (P49327 whole entry, the tested form may be a part): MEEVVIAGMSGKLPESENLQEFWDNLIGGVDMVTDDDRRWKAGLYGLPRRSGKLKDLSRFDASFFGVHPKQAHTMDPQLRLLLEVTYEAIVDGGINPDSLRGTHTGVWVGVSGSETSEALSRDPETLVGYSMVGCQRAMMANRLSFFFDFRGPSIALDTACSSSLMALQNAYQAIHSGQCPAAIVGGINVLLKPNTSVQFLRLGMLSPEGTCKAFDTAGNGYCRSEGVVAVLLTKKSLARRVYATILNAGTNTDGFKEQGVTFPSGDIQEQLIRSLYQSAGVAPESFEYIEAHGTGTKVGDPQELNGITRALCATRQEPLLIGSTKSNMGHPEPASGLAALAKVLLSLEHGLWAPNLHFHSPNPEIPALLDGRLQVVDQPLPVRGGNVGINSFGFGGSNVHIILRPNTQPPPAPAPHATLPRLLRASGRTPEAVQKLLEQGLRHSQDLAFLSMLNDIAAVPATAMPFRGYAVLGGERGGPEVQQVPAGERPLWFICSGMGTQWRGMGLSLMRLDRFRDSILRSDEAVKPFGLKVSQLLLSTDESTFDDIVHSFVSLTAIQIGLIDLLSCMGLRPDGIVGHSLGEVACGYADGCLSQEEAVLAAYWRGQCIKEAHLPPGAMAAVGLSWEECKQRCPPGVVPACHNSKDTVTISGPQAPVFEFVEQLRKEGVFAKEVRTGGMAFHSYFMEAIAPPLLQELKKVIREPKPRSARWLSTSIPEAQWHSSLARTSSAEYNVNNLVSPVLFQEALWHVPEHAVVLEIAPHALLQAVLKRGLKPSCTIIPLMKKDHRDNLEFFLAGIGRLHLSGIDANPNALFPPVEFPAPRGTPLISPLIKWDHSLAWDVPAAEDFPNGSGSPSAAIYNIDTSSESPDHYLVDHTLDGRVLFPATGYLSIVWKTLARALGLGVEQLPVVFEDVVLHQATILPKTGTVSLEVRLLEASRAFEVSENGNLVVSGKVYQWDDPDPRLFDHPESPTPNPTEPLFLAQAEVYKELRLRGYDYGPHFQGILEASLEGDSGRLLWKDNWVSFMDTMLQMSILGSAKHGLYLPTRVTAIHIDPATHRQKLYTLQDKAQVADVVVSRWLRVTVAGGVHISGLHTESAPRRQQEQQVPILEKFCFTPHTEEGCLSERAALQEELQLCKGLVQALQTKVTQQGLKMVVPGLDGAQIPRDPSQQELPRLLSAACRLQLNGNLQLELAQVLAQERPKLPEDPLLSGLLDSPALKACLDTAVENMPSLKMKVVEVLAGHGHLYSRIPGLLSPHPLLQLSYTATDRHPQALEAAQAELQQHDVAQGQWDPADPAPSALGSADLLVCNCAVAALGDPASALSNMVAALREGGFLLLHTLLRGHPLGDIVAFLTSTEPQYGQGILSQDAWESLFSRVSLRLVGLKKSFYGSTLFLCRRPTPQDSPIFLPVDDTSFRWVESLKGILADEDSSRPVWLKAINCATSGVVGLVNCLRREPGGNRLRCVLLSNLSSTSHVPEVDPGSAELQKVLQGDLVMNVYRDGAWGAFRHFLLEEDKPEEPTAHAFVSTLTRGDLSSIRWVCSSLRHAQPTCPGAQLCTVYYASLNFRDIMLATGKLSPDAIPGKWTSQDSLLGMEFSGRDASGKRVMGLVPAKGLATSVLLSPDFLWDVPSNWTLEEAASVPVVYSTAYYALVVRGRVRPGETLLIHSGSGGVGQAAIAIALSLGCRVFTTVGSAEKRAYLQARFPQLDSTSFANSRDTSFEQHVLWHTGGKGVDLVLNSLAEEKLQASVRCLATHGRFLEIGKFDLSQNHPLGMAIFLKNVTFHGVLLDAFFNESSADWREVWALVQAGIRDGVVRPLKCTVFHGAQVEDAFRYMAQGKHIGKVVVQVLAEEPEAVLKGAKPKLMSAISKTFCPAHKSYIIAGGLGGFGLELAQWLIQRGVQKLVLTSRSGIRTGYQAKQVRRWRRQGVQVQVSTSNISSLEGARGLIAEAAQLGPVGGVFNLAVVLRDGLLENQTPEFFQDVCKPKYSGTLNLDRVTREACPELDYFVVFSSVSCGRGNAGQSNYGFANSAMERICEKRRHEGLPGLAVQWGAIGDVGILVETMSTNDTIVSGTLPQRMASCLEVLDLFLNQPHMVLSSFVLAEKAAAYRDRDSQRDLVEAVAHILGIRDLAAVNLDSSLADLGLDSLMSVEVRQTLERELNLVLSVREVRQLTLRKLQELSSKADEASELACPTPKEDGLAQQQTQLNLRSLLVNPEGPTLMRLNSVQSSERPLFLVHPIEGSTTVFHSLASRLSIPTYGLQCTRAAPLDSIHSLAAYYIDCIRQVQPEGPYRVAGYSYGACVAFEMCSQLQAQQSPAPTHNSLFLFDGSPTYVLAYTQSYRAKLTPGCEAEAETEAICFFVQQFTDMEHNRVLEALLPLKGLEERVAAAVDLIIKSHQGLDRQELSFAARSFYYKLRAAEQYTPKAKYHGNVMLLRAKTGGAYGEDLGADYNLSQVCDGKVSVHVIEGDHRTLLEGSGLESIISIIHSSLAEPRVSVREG

Cc1csc(NC(=O)CCNC(=O)c2ccc([N+](=O)[O-])cc2)n1
IC50 (Fatty acid synthase [1]): 7.66 µM (active) | IC50 (Fatty acid synthase [2]): 6.85 µM (active)

O=S(=O)(Cc1ccccc1)N1CCc2ccccc21
EC50 [3]: > 160 µM (inactive) | EC50 [4]: 1.56 µM (active)

COC(=O)[C@@H]1C[C@H]2CC[C@H](O)C[C@H]2N1Cc1ccc(-c2ccccc2)cc1
AC50 (Cytochrome P450 3A4): 12.6 µM (inconclusive)

CCCc1n[nH]c2c1C(c1ccc(OC(=O)N3CCOCC3)cc1)C(C#N)=C(N)O2 (stereo unspecified)
EC50 (Protein RecA): 11.8 µM (active) | AC50 [5]: 23.5 µM (active)

NC(=O)c1ccc(NC(=O)COc2cccc3c2CCNC3=O)cc1
IC50 (H9c2): > 79 µM (inactive)

O=C(CNC(=O)c1[nH]cnc1C(=O)NCc1ccccc1)OCc1ccccc1
IC50 (H9c2): 40.4 µM (inactive)

COc1cc(-n2c(=O)c3ccccc3n(Cc3cc(=O)n4ccccc4n3)c2=O)cc(OC)c1OC
IC50 (H9c2): 18.7 µM (active)

N#C/C(=C\c1c(F)cccc1Cl)c1nn(-c2ccccc2)c(-n2cccc2)c1C#N
EC50 (Protein RecA): 1.34 µM (inconclusive) | AC50 [6]: 0.966 µM (active) | CC50 [7]: > 50 µM (active) | AC50 [5]: 28.9 µM (active)

CCN(CC)CCCn1c(-c2ccccc2)nc2c(NCc3ccccc3)nc(C)nc21
AC50 (Cytochrome P450 3A4): 10 µM (inconclusive)

COC(=O)[C@@H]1C[C@@]2(O)[C@H](O)[C@H](O)[C@H](O)C[C@H]2N1Cc1ccc(N2CCN(C)CC2)cc1
AC50 (Cytochrome P450 3A4): 31.6 µM (inconclusive)

O=C(COC(=O)c1ccc(Cl)c([N+](=O)[O-])c1)NC1CCCC1
IC50 (Fatty acid synthase [1]): 3.41 µM (active) | IC50 (Fatty acid synthase [2]): 3.12 µM (active)

COc1ccc([N+](=O)[O-])cc1C(=O)Nc1ccc(Cc2ccncc2)cc1
IC50 (Fatty acid synthase [1]): 11.5 µM (active) | IC50 (Fatty acid synthase [2]): 10.9 µM (active)

COc1ccc(OC2C(O)COC2/C=C/C#Cc2ccccc2)cc1 (stereo unspecified)
AC50 (Cytochrome P450 3A4): 3.98 µM (inconclusive)

COC(=O)c1ccc(CNC(=O)/C=C/c2cc([N+](=O)[O-])ccc2OC(F)F)cc1
IC50 (Fatty acid synthase [1]): 4.91 µM (active) | IC50 (Fatty acid synthase [2]): 3.27 µM (active)

COc1ccc(/C=C/C(=O)c2ccccc2)cc1COc1ccc(F)cc1
EC50 (Protein RecA): 37.2 µM (active) | AC50 [5]: 17.1 µM (active)

CC(=O)OCC(=O)[C@@]1(O)CCC2C3CC(C)C4=CC(=O)C=CC4(C)C3C(O)CC21C (stereo partly specified)
AC50 (Cytochrome P450 3A4): 12.6 µM (inconclusive)

Cc1nc(N2CCOCC2)c2nc(-c3ccccc3)n(CC(C)(C)CN(C)C)c2n1
AC50 (Cytochrome P450 3A4): 10 µM (inconclusive)

N#C/C(=C\c1ccc(-c2cccc([N+](=O)[O-])c2)o1)C(=O)NCCN1CCOCC1
IC50 (H9c2): > 79 µM (inactive)

CC(C)(C)c1ccc(CSc2ccc(S(=O)(=O)N3CCOCC3)cn2)cc1
IC50 (Fatty acid synthase [1]): 0.683 µM (active) | IC50 (Fatty acid synthase [2]): 1.03 µM (active)

COc1ccc2[nH]cc(CC(N)C(=O)O)c2c1 (stereo unspecified)
AC50 (Cytochrome P450 3A4): 31.6 µM (inconclusive)

COc1ccc(Cn2c(C)nc3ccc([N+](=O)[O-])cc3c2=O)cc1
IC50 (Fatty acid synthase [1]): 3.61 µM (active) | IC50 (Fatty acid synthase [2]): 4.97 µM (active)

Cc1ccc(OCC(=O)NCc2nnc(O)c3ccccc23)cc1
IC50 (H9c2): > 79 µM (inactive)

C[n+]1c(-c2ccccc2)cc(-c2ccc(Cl)cc2)cc1-c1ccccc1.[O-][Cl+3]([O-])([O-])[O-]
EC50 [3]: > 160 µM (inconclusive) | EC50 [4]: 0.756 µM (active)

Cn1ncc(Cl)c1C(=O)NNC(=O)Nc1cccc2ccccc12
EC50 [3]: > 160 µM (inactive) | EC50 [4]: > 38 µM (not active)

OC(COc1ccc2c(c1)OCO2)CN1CCCC1 (stereo unspecified)
EC50 [3]: 53.2 µM (active)

CCN(CC)CCn1c2c(c(SCC(=O)Nc3cccc(C(C)=O)c3)nc1=O)CCCC2
IC50 (H9c2): > 79 µM (inactive)

O=C(CSc1nc(O)c2ccccc2n1)N1CCCCCC1
IC50 (H9c2): 33 µM (inactive)

COc1ccc(C2NC(c3ccc(OC)cc3OC)C(C)C(=O)C2C)c(OC)c1 (stereo unspecified)
IC50 [8]: 116 µM (active) | EC50 (Protein RecA): > 380 µM (inactive) | AC50 [5]: > 380 µM (inactive)

CC(=O)O[C@@]1(C(C)=O)CCC2C3CC(C)C4=CC(=O)CC[C@@]4(C)C3CC[C@]21C (stereo partly specified)
AC50 (Cytochrome P450 3A4): 39.8 µM (inconclusive)

CSCCC(NC(=O)c1ccc(Cl)c([N+](=O)[O-])c1)C(=O)N1CCN(C/C=C/c2ccccc2)CC1 (stereo unspecified)
IC50 (Fatty acid synthase [1]): 6.62 µM (active) | IC50 (Fatty acid synthase [2]): 8.52 µM (active)

CC1CC(C)CN(C(=O)COC(=O)c2cc([N+](=O)[O-])ccc2N2CCOCC2)C1 (stereo unspecified)
IC50 (Fatty acid synthase [1]): 1.22 µM (active) | IC50 (Fatty acid synthase [2]): 1.3 µM (active)

CN(C(=O)COC(=O)c1cc([N+](=O)[O-])ccc1N1CCOCC1)C1CCCCC1
IC50 (Fatty acid synthase [1]): 0.41 µM (active) | IC50 (Fatty acid synthase [2]): 0.383 µM (active)

CC(=O)Nc1cc(-c2ccc(C(=O)N3CCOCC3)cc2)cn2c(-c3ccc(C(C)=O)cc3)cnc12
IC50 (H9c2): > 79 µM (inactive)

O=C(COC(=O)Cc1nnc(O)c2ccccc12)NNC(=O)c1ccc(Br)cc1
IC50 (H9c2): > 79 µM (inactive)

COc1ccc(C(=O)Nc2cccc(/C(C)=N/NC(=O)c3ccc([N+](=O)[O-])c(C)c3)c2)cc1OC
IC50 (H9c2): > 79 µM (inactive)

O=C1CCCC/C1=N\Nc1ccc(OCc2ccccc2)cc1
EC50 [3]: > 160 µM (inconclusive) | EC50 [4]: > 38 µM (not active)

O=[N+]([O-])c1ccc(N2CCOCC2)c2ccncc12
EC50 (Protein RecA): 12.2 µM (active) | AC50 [5]: > 380 µM (inactive)

CC(Nc1c[nH]c(=O)[nH]c1=O)c1ccccc1 (stereo unspecified)
EC50 (Protein RecA): 15.5 µM (active) | AC50 [5]: 23.9 µM (active)

O=C(CCCCCCCCCCCCC1CCCC1)Nc1ccc(S(=O)(=O)c2ccc(NC(=O)CCCCCCCCCCCCC3CCCC3)cc2)cc1 [CHAULMOSULFONE]
AC50 (Cytochrome P450 3A4): 31.6 µM (inconclusive)
